The nature of assay [1]: Inhibition of IGF1R-dependent tumor cell growth in human MCF7 cells.
The target in assay [2] is Proto-oncogene tyrosine-protein kinase Src (Homo sapiens) (UniProt P12931). Kind of assay: Inhibition of cSrc.
Assay [3] in a line: Inhibition of Cdk5.

pIC50: −log10 of the molar value.

Proto-oncogene tyrosine-protein kinase Src (Homo sapiens), sequence (P12931 whole entry, looked up): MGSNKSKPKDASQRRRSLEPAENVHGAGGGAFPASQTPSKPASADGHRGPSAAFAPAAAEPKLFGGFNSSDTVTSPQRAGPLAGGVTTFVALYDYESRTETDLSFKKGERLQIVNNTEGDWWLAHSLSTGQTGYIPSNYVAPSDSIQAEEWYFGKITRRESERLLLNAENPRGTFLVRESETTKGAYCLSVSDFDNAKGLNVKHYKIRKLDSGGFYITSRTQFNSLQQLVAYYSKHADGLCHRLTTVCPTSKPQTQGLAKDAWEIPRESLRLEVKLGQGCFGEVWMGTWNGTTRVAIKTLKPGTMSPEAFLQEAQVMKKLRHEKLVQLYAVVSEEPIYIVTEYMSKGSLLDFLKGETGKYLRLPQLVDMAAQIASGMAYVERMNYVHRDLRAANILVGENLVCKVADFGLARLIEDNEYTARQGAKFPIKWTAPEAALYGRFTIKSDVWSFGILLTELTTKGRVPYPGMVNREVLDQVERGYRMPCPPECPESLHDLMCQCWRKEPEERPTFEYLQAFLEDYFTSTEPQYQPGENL

A word on the pIC50: it is the IC50 on a negative log10 scale, so that one unit is a factor of ten. A higher pIC50 goes with a low IC50. The compound `COc1ccc(Cl)cc1NC(=O)Nc1cc(C)nc2ccccc12` [TCMDC-125497] had a negative logarithm of the IC50 (pIC50) in assay [1] of 5.10. As to `CCN(CC)CCCCNc1ncc2cc(-c3cc(OC)cc(OC)c3)c(NC(=O)NC(C)(C)C)nc2n1`, the pIC50 in assay [2] was 4.70. As for `O=C1Nc2ccccc2/C1=C\c1c(Cl)[nH]c2ccccc12`, the negative-log IC50 (pIC50) in assay [3] is 4.60.
